Measured values reported in patent publication US20050136472A1, “Methods for identification of ligands or modulators of 2871 receptor, a G-protein coupled receptor” (Millennium Pharmaceuticals, Inc., priority 2001, published 2005).

Columns and labels:
2871 receptor [1] = target: T1, 2871 receptor (Homo sapiens, UniProt Q9BY21); assay: FLIPR calcium mobilization screening of 2871 receptor-transfected cells; format: cell-based; settings: HEK293G16 cells stably transfected with 2871 receptor protein; for calcium mobilization response: concentration response; for EC50: calcium mobilization
T1 construct: encodes a full length 2871 receptor protein; myc (on only one of the two constructs made); expressed in transfected cells
Method: The 2871 receptor proteins were expressed in either human embryonic kidney 293 (HEK293) cells or CHO cells, both of which were stably transfected with cDNA encoding the promiscuous G-protein Gal6. A pEF6 vector (invitrogene) including a cDNA of 2871 comprising only the open reading frame (ORF) or 5′-myc tagged ORF was constructed. Cells were transfected with individual construct by lipofectamine (GIBCO) and selected in the presence of 20 ug/ml Blasticidine. After 3 weeks of selection, drug resistant cells were subcloned to obtain individual clones by limited dilution. To isolate cell lines stably expressing the 2871 receptor protein, about 48 clones were typically selected and analyzed. The expression level for myc-tagged 2871 on individual clones was evaluated by using anti-myc Ab staining and FACScan analysis. The expression level for un-tagged 2871 was evaluated by mRNA analysis using standard Taqman techniques and comparing with mRNA expression of myc-tagged 2871 clones. HEK293G16 or CHOG16 cells transfected with the vector alone serve as negative controls. The clones with the highest expression of 2871 as well as good morphology and growth were used for the screening experiments.
The functional screening procedure involves the use of transfected mammalian cells (CHO, HEK293, RBL, L1.2 etc.) containing a cDNA encoding the 2871 peptides to express the receptor on the cell surface. The cells were loaded with a calcium dependent dye such as fura 2 that produces a fluorescent signal when bound to calcium.
Cells were bound to a receptor agonist, such as Ap6A. Any change in fluorescent signal was measured over a defined period of time using a Fluorescence Imaging Plate Reader (FLIPR) (See Sullivan E, et al. Measurement of [Ca^2+] using the Fluorometric Imaging Plate Reader (FLIPR). Methods Mol Biol 1999;114:125-133.)
Cells were exposed to putative ligands and/or modulators and evaluated for agonist induced calcium mobilization. Cell lines transfected with vector alone served as negative controls in the same screening procedures for agents initially identified as putative ligands and/or modulators.
(§1) 2871 receptor-transfectants (IIEK293 (60,000 cells/well) or CHO cells (30,000 cells/well)) were seeded into poly-D-lysine-coated 96-well black-wall, clear-bottom microtiter plates 24 hours prior to assay. Cells were loaded for 1 hour with 2 μM Fluo-3-AM fluorescent indicator dye (Molecular Probes) in assay buffer (Hank's balanced salt solution, 10 mM HEPES, 0.1% BSA, 2.5 mM probenecid), washed three times with assay buffer, and then applied to FLIPR for analysis.
Bio-active lipids were screened at final concentration of 200 nM and 1 μM. Nucleotides were screened at final concentration of 1 μM and 2 μM. The ratio of net change (maximum subtracting minimum) in fluorescence over baseline was used to determine agonist response. Positive responses were confirmed by checking original raw responsive curve.
Concentration response curve data were fitted by Graphpad Prism 2.1 (Graphpad software, Inc., San Diego).

2871 receptor [2] = target: T1, 2871 receptor; assay: Desensitization of calcium mobilization response by sequential adenosine nucleotide treatment (FLIPR); format: cell-based; settings: for desensitization of calcium mobilization response to subsequent adenosine nucleotide treatment: additional treatment five to six minutes after initial dose
Method: as §1
Furthermore, calcium mobilization response was selectively desensitized treatment with adenosine nucleotide was followed by subsequent treatment with additional adenosine nucleotide. Initial treatment with adenosine nucleotide was followed by additional treatment five to six minutes after initial dose. Treatment and data analysis were as described supra.

T1 sequence (Q9BY21 whole entry): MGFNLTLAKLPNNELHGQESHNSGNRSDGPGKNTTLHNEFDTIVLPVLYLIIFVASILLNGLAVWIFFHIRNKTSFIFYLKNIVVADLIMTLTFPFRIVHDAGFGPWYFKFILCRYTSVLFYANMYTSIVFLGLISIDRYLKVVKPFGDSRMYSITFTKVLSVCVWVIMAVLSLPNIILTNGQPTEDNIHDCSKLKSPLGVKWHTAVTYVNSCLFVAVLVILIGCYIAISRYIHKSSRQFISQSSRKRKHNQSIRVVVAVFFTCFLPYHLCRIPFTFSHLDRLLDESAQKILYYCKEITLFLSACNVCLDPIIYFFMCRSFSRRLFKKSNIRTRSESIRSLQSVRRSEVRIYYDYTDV

Compound	calcium mobilization response (2871 receptor [1])	EC50 (2871 receptor [1])	desensitization of calcium mobilization response to subsequent adenosine nucleotide treatment (2871 receptor [2])	agonist activity after initial AMP treatment (2871 receptor [2]; second treatment five to six minutes after initial AMP dose)
Nc1ncnc2c1ncn2[C@@H]1O[C@H](COP(=O)(O)OP(=O)(O)O[C@H]2O[C@H](CO)[C@@H](O)[C@H](O)[C@@H]2O)[C@@H](O)[C@H]1O [ADP-mannose]	dose-dependent	–	–	–
Nc1ncnc2c1ncn2C1OC(COP(=O)(O)OP(=O)(O)OCC2OC(O)C(O)C2O)C(O)C1O (stereo not shown) [ADP-ribose, adenosine di-phosphate-ribose]	dose-dependent	0.4 to 0.8 µM	–	–
Nc1ncnc2c1ncn2[C@@H]1O[C@H](COP(=O)(O)O)[C@@H](O)[C@H]1O [AMP, adenosine monophosphate]	dose-dependent	0.5 to 0.8 µM	conferred desensitization to subsequent AMP treatment	–
Nc1ncnc2c1ncn2[C@@H]1O[C@H](COP(=O)(O)OP(=O)(O)OC[C@H]2O[C@@H](n3cnc4c(N)ncnc43)[C@H](O)[C@@H]2O)[C@@H](O)[C@H]1O [AP2A]	dose-dependent	–	–	–
Nc1ncnc2c1ncn2[C@@H]1O[C@H](COP(=O)(O)OP(=O)(O)OP(=O)(O)OC[C@H]2O[C@@H](n3cnc4c(N)ncnc43)[C@H](O)[C@@H]2O)[C@@H](O)[C@H]1O [AP3A]	dose-dependent	–	–	–
di-adenosine hexaphosphate [AP6A]	dose-dependent	0.2 to 0.4 µM	effectively desensitized 2871 receptor to subsequent treatment with either AP6A or AMP	retained agonist activity
di-adenosine pentaphosphate [AP5A]	dose-dependent	1.2 to 1.8 µM	–	–
di-adenosine tetraphosphate [AP4A]	dose-dependent	1.8 to 2 µM	–	–
